Consider 20 compounds from PubChem BioAssay (NCI).

Among the test systems are ACHN renal; RPMI-8226 leukemia; LOX IMVI melanoma; CAKI-1 renal; SNB-19 CNS; RXF 393 renal; HL-60(TB) leukemia; MDA-MB-435; SNB-75 CNS; SK-OV-3 ovarian.
Experiment in all cases: DTP human tumour cell line panel, 48 h

Several values for one entry are separate records, joined by “and”; a condition that tells them apart may be missing. Equal values may be shown once.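 Cultured in 96-well plates, cells were exposed to test compound for 48 hours across five concentrations. TGI: total growth inhibition.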

Broadly, the TGI is the concentration at which net growth stops. A low value points to greater sensitivity of the cells. Turning to `COc1cc(CCNC2=CC(=O)c3nc[nH]c3C2=O)ccc1O`, the TGI in the assay on ACHN renal was above 100 µM; in the assay with RPMI-8226 leukemia, 68.7 µM; in the assay with LOX IMVI melanoma, 45.7 µM; with CAKI-1 renal, above 100 µM; with SNB-19 CNS it was 33.3 µM; in the assay on RXF 393 renal, above 100 µM. In addition, the concentration for total growth inhibition (TGI) in the assay with HL-60(TB) leukemia was 60.8 µM; with MDA-MB-435 it was 31.4 µM; in the assay with SNB-75 CNS, 40.4 µM; in the assay with SK-OV-3 ovarian, 90.2 µM.

Consider `CCOP(=O)(/C=C/n1cc(C)c(=O)[nH]c1=O)OCC`, for which the TGI in the assay with ACHN renal, with RPMI-8226 leukemia, in the assay on LOX IMVI melanoma, with CAKI-1 renal, with SNB-19 CNS and in the assay with RXF 393 renal was above 100 µM each time. In addition, the total growth inhibition concentration (TGI) in the assay with HL-60(TB) leukemia, in the assay with MDA-MB-435, in the assay with SNB-75 CNS and in the assay on SK-OV-3 ovarian was above 100 µM in each case.

Regarding `C[n+]1cccc2ccc3cccnc3c21`, the TGI with ACHN renal, in the assay on RPMI-8226 leukemia, with LOX IMVI melanoma, in the assay with CAKI-1 renal, in the assay on SNB-19 CNS and in the assay on RXF 393 renal was above 100 µM throughout. Further, the TGI is above 100 µM in the assay on HL-60(TB) leukemia, above 100 µM with MDA-MB-435, 65.1 µM in the assay on SNB-75 CNS and above 100 µM in the assay on SK-OV-3 ovarian.

For `Nc1[nH]c(=O)nc2c1ncn2C1OC(CO)C(O)C1O` (stereo not given), the TGI in the assay on ACHN renal, in the assay on RPMI-8226 leukemia, with LOX IMVI melanoma, in the assay with CAKI-1 renal, in the assay on SNB-19 CNS and with RXF 393 renal was above 100 µM each time. Also, the TGI was 54.9 µM in the assay on HL-60(TB) leukemia, above 100 µM in the assay with MDA-MB-435, 20.6 µM with SNB-75 CNS and above 100 µM in the assay on SK-OV-3 ovarian.

For the compound `N#Cc1c(NC(=S)Nc2ccc(Cl)cc2)sc2c1CCN(N1CCc3c(sc(NC(=S)Nc4ccc(Cl)cc4)c3C#N)C1)C2`, the TGI with ACHN renal was above 100 µM; in the assay with RPMI-8226 leukemia, above 100 µM; with LOX IMVI melanoma, 23.4 µM; in the assay on CAKI-1 renal it was above 100 µM; in the assay on SNB-19 CNS it was above 100 µM; in the assay with RXF 393 renal it was 78.3 µM. The TGI with HL-60(TB) leukemia, in the assay on MDA-MB-435, with SNB-75 CNS and with SK-OV-3 ovarian was above 100 µM each time.

Regarding `Cc1cn(CCCCCCOC(=O)NC(CCCNC(N)=O)C(=O)O)c(=O)[nH]c1=O` (stereo not given), the TGI in the assay on ACHN renal, in the assay with RPMI-8226 leukemia, in the assay with LOX IMVI melanoma, in the assay with CAKI-1 renal, in the assay on SNB-19 CNS and in the assay on RXF 393 renal was above 100 µM in each case. Moreover, the TGI with HL-60(TB) leukemia, with MDA-MB-435, in the assay on SNB-75 CNS and in the assay on SK-OV-3 ovarian was above 100 µM each time.

Take `COc1cccc2c1C(=O)c1c(O)c3c(c(O)c1C2=O)C[C@@](O)(C(C)=O)CC3OC1CC(OC2CC(N)C(O)C(C)O2)C(O)C(C)O1` (stereo not given in full): the TGI is above 100 µM in the assay with ACHN renal; above 74.5 µM in the assay with RPMI-8226 leukemia; above 100 µM with LOX IMVI melanoma; above 100 µM with CAKI-1 renal; above 85.1 µM in the assay on SNB-19 CNS; above 100 µM in the assay with RXF 393 renal. Further, the TGI in the assay with HL-60(TB) leukemia is 34.8 µM; in the assay on MDA-MB-435, above 100 µM; in the assay on SNB-75 CNS, 85.7 µM; in the assay with SK-OV-3 ovarian, above 100 µM.

Consider `Cc1ccccc1NC(=O)O/N=C(\Cl)C(C)C`, for which the TGI turned out to be 3.13 µM with ACHN renal; 4.03 µM with RPMI-8226 leukemia; 3.11 µM in the assay on LOX IMVI melanoma; 3.2 µM with CAKI-1 renal; 41.9 µM in the assay with SNB-19 CNS; 25.1 µM in the assay with RXF 393 renal. Moreover, the TGI in the assay with HL-60(TB) leukemia was above 22 µM; with MDA-MB-435, 30.1 µM; in the assay on SNB-75 CNS, 32.1 µM; with SK-OV-3 ovarian it was 32.8 µM.

In the case of `Cc1nc(NC(C)(CO)CO)nc(N/N=C/c2ccc(Cl)cc2)c1C(=O)Nc1ccc(Cl)cc1`, the TGI with ACHN renal, with RPMI-8226 leukemia, in the assay with LOX IMVI melanoma, in the assay on CAKI-1 renal, in the assay on SNB-19 CNS and in the assay with RXF 393 renal was above 100 µM in each case. The TGI with HL-60(TB) leukemia, in the assay on MDA-MB-435, in the assay with SNB-75 CNS and in the assay with SK-OV-3 ovarian was above 100 µM throughout.

As for `COC1(CC[C@@H](C)COC2OC(CO)C(O)C(O)C2O)OC2C[C@H]3[C@@H]4CC[C@H]5C[C@@H](OC6OC(CO)C(OC7OC(CO)C(O)C(O)C7O)C(O)C6OC6OC(C)C(O)C(O)C6O)[C@H](O)C[C@]5(C)[C@H]4CC[C@]3(C)C2[C@@H]1C` (stereo not given in full), the TGI stood at 3.33 µM in the assay with ACHN renal; 4.58 µM with RPMI-8226 leukemia; 3.22 µM with LOX IMVI melanoma; 4.29 µM with CAKI-1 renal; 3.55 µM with SNB-19 CNS; 3.85 µM with RXF 393 renal. The TGI was 5.38 µM with HL-60(TB) leukemia, 3.5 µM with MDA-MB-435, 3.49 µM in the assay on SNB-75 CNS and 3.28 µM with SK-OV-3 ovarian.

On to `COC(=N)C1(C#N)NC(c2ccsc2)C(C#N)(C#N)NC1c1ccsc1` (stereo not given), for which the TGI in the assay with ACHN renal, in the assay with RPMI-8226 leukemia, in the assay with LOX IMVI melanoma, in the assay on CAKI-1 renal, in the assay with SNB-19 CNS and in the assay with RXF 393 renal was above 100 µM throughout. The TGI in the assay with HL-60(TB) leukemia, with MDA-MB-435, in the assay on SNB-75 CNS and with SK-OV-3 ovarian was above 100 µM in each case.

`O=CCCCCCOCc1ccccc1`: the concentration for total growth inhibition (TGI) was above 100 µM in the assay with ACHN renal; above 56.8 µM with RPMI-8226 leukemia; 34.9 µM in the assay with LOX IMVI melanoma; above 66.8 µM in the assay on CAKI-1 renal; above 100 µM in the assay on SNB-19 CNS; above 100 µM in the assay on RXF 393 renal. Moreover, the TGI in the assay with HL-60(TB) leukemia is above 43.7 µM; in the assay with MDA-MB-435 it was above 100 µM; with SNB-75 CNS it was above 100 µM; with SK-OV-3 ovarian, above 100 µM.

For `COC(=O)C1OC(O[C@H]2CC[C@]3(C)[C@H]4CC=C5[C@@H]6CC(C)(C)CC[C@]6(C(=O)OC6OCC(O)C(O)C6OC6OC(C)C(OC7OCC(O)C(O)C7O)C(O)C6O)[C@H](O)C[C@@]5(C)[C@]4(C)CC[C@H]3C2(C)C)C(O)C(O)C1O` (stereo not given in full), the TGI in the assay on ACHN renal was 14.6 µM and 14.9 µM; in the assay on RPMI-8226 leukemia it was > 100 µM and 21.3 µM; with LOX IMVI melanoma, 19.6 µM and 14.5 µM; with CAKI-1 renal, 11.2 µM and 14.9 µM; in the assay on SNB-19 CNS, 17.5 µM and 21.9 µM; in the assay on RXF 393 renal, 29 µM and 31.2 µM. Further, the TGI in the assay with HL-60(TB) leukemia is 5.28 µM and 6.62 µM; with MDA-MB-435 it was 3.78 µM and 5.21 µM; in the assay with SNB-75 CNS, 18.5 µM and 20.9 µM; with SK-OV-3 ovarian, 23.5 µM and 26.3 µM.

Consider `CC(=O)NC1C(OCc2ccccc2)OC(CO)C(O)C1OC(C)C(=O)N[C@@H](C)C(=O)N[C@H](CCC(=O)NCCNCCNc1c2ccccc2nc2cccc([N+](=O)[O-])c12)C(N)=O` (stereo not given in full), for which the TGI was 0.512 µM with ACHN renal; 0.381 µM with RPMI-8226 leukemia; 0.534 µM in the assay on LOX IMVI melanoma; 0.565 µM in the assay with CAKI-1 renal; 1.86 µM in the assay with SNB-19 CNS; 0.0844 µM in the assay with RXF 393 renal. The total growth inhibition concentration (TGI) in the assay on HL-60(TB) leukemia was above 80.5 µM; with MDA-MB-435, 0.235 µM; with SNB-75 CNS it was 0.883 µM; in the assay with SK-OV-3 ovarian it was 2.05 µM.

As to `Nc1c(C(=O)c2ccc(Cl)c(Cl)c2)[nH]c(NCc2ccccc2)c1C(=S)Nc1ccccc1`, the total growth inhibition concentration (TGI) worked out at 28.1 µM in the assay with ACHN renal; 6.03 µM in the assay on RPMI-8226 leukemia; 4.53 µM in the assay on LOX IMVI melanoma; 32.2 µM in the assay with CAKI-1 renal; 37.7 µM in the assay with SNB-19 CNS; 27.3 µM in the assay with RXF 393 renal. Moreover, the TGI in the assay on HL-60(TB) leukemia was 38.4 µM; in the assay on MDA-MB-435 it was 18.3 µM; with SNB-75 CNS, 24.1 µM; with SK-OV-3 ovarian, 32.2 µM.

As for `CN(CCCCCl)P(=O)(OCc1ccc([N+](=O)[O-])o1)OCC1OC(n2ccc(N)nc2=O)C(O)C1O` (stereo not given), the concentration for total growth inhibition (TGI) in the assay with ACHN renal was above 100 µM; in the assay with RPMI-8226 leukemia, 6.07 µM; with LOX IMVI melanoma, 20.5 µM; in the assay with CAKI-1 renal, above 100 µM; with SNB-19 CNS it was 43.7 µM; in the assay with RXF 393 renal, 60.2 µM. Also, the TGI in the assay with HL-60(TB) leukemia worked out at 31.8 µM; in the assay on MDA-MB-435, 8.21 µM; with SNB-75 CNS it was 5.59 µM; in the assay on SK-OV-3 ovarian, 38.3 µM.

With `CCCCCC[C@H]([C@H](C)O)n1cnc2c(N)ncnc21`, the TGI in the assay on ACHN renal, in the assay with RPMI-8226 leukemia, with LOX IMVI melanoma, in the assay on CAKI-1 renal, in the assay with SNB-19 CNS and in the assay with RXF 393 renal was above 100 µM in each case. The TGI with HL-60(TB) leukemia, in the assay with MDA-MB-435, with SNB-75 CNS and with SK-OV-3 ovarian was above 100 µM each time.

Take `CN1CCN(C(=O)c2cn(Cc3cncn3Cc3ccc4c(c3)OCO4)cc2-c2cccc3ccccc23)CC1`: the TGI with ACHN renal is above 100 µM; in the assay on RPMI-8226 leukemia, 38.7 µM; in the assay on LOX IMVI melanoma it was 47.8 µM; with CAKI-1 renal it was above 84.9 µM; with SNB-19 CNS it was above 100 µM; with RXF 393 renal, above 100 µM. The TGI in the assay on HL-60(TB) leukemia was 23.2 µM; in the assay on MDA-MB-435, above 58.9 µM; in the assay with SNB-75 CNS it was 67.9 µM; in the assay with SK-OV-3 ovarian, above 100 µM.

For the compound `COc1cc2c(/C=C3/C(=O)Nc4ccccc43)c(Cl)n(Cc3ccc(Cl)cc3)c2cc1C`, the TGI in the assay on ACHN renal was 1.27 µM; in the assay on RPMI-8226 leukemia, 0.925 µM; with LOX IMVI melanoma, 2.54 µM; in the assay on CAKI-1 renal, 0.834 µM; with SNB-19 CNS, 15.8 µM; in the assay on RXF 393 renal, 4.85 µM. Moreover, the TGI was found to be 2.33 µM in the assay with HL-60(TB) leukemia, 0.428 µM with MDA-MB-435, 0.898 µM in the assay on SNB-75 CNS and 2.85 µM in the assay with SK-OV-3 ovarian.

Turning to `NC(=O)[C@H](Cc1ccc(O)cc1)Nc1c(O)c2c(c(O)c1Cl)C(=O)C=CC2=O`, the TGI in the assay with ACHN renal is 6.61 µM; in the assay on RPMI-8226 leukemia, 7 µM; with LOX IMVI melanoma, above 4.65 µM; in the assay on CAKI-1 renal, 5.18 µM; in the assay with SNB-19 CNS, above 10 µM; with RXF 393 renal it was 9.56 µM. Also, the TGI with HL-60(TB) leukemia was 3.19 µM; with MDA-MB-435, 4 µM; in the assay on SNB-75 CNS it was above 10 µM; in the assay on SK-OV-3 ovarian, above 10 µM.
